Assays:
[1] = test system: caspase-8, PARP and cytochrome C in MCF-7 cells; assay: Immunoblotting of apoptosis markers, MCF-7; type: cell-based, human
Method: For preparation of mitochondrial and cytoplasmic cellular fractions, MCF-7, MCF-7TAX, and MCF-7DOX cells were grown in a monolayer to 70-90% confluence on 10 cm tissue culture plates. Twenty-four hours prior to extraction, the cells were treated with 50 nM light-activated calphostin C as described above. After this treatment, the cells were trypsinized, centrifuged at 1000 rpm in a Beckman GP centrifuge and washed with PBS. To the resulting cell pellet, 1 ml of ice-cold homogenization (HM) buffer was added. This buffer consisted of 85.55 g sucrose, 1.406 g MOPS, 0.292 g EDTA, and 1 ml ethanol per liter of solution, with a final pH of 7.2. Prior to use, 0.2 ml of 0.1 M PMSF, 1 Complete™ protease inhibitor tablet (Roche Diagnostics, Laval, QC), and 20 μl of 1 M DTT was added for 100 ml of HM buffer. Cells were then lysed 10 times by homogenization in a 2 ml dounce homogenizer. Nuclei in the lysate were then pelleted by centrifugation in a microfuge tube at 70 g for 10 minutes at 4° C. and the supernatant carefully removed. The supernatant was clarified by centrifugation at 1950 g for 10 minutes at 4° C. and the pellet (containing mitochondria) was resuspended in 50 μl of HM buffer. The remaining clarified supernatant was deemed the cytoplasmic fraction. […]

[2] = test system: human 293T embryonic kidney cells; assay: Death and cytoplasmic vacuolization, 293T; type: cell-based; conditions: data not shown

COc1c(C[C@@H](C)OC(=O)Oc2ccc(O)cc2)c2c3c(C[C@@H](C)OC(=O)c4ccccc4)c(OC)c(=O)c4c(O)cc(OC)c(c5c(OC)cc(O)c(c1=O)c52)c43 [calphostin C]
caspase-8 and PARP cleavage (protein levels) ([1]; light-activated calphostin C, whole cell extracts): did not result in any change | release of cytochrome C from mitochondria ([1]; mitochondrial and cytoplasmic fractions): no clear evidence for the release of cytochrome C | induction of death and cytoplasmic vacuolization [2]: induce both death and cytoplasmic vacuolization

Source: patent publication US7371780B2, “Use of calphostin C to treat drug-resistant tumor cells” (priority 2003, dated 2008)
